Patent US20170008888A1 (KYORIN PHARMACEUTICAL CO., LTD., priority 2014, published 2017)

Columns and labels:
Format in all cases: binding
AurA = target: T1, AurA (Homo sapiens, UniProt O14965); assay: Probe-based (AX9989) kinase profiling in Jurkat lysate: AurA; conditions: read-out: Kinase inhibition % at indicated screening concentration: AurA; for inhibition at 1 µM: screening concentration 1.0 μM; for inhibition at 0.1 µM: screening concentration 0.1 μM
T1 construct: screened for activity against several kinases in Jurkat cells; endogenous in cells; host or cells: Jurkat cell lysate
T1 sequence (O14965 1-403): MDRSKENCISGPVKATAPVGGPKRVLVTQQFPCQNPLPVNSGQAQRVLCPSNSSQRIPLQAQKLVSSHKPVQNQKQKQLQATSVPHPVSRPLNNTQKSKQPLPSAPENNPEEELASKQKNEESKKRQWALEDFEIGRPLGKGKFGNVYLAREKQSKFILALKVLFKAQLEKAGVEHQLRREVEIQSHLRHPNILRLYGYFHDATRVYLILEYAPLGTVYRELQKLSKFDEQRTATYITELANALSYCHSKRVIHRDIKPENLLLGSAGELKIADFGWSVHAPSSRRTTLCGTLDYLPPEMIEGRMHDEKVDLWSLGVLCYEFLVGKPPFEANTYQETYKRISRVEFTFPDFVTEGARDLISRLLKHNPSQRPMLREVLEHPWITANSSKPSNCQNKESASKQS
Method in brief: (§1)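 Compounds were pre-incubated for 15 min at room temperature with gel-filtered Jurkat cell lysate supplemented with 20 mM MnCl2, after which the acyl phosphate ATP probe AX9989 was added at 5 μM final. Labeled active-site peptides were enriched after tryptic digestion and measured by LC/MS, with percent inhibition taken relative to samples without compound.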

ACK = target: T2, ACK (Homo sapiens, UniProt Q07912); assay: Probe-based (AX9989) kinase profiling in Jurkat lysate: ACK; conditions: read-out: Kinase inhibition % at indicated screening concentration: ACK; for inhibition at 1 µM: screening concentration 1.0 μM; for inhibition at 0.1 µM: screening concentration 0.1 μM
T2 construct: screened for activity against several kinases in Jurkat cells; endogenous in cells; host or cells: Jurkat cell lysate
Method in brief: as §1

ABL or ARG = assay: Probe-based (AX9989) kinase profiling in Jurkat lysate: ABL or ARG
Method in brief: as §1

AMPKa1 or AMPKa2 = assay: Probe-based (AX9989) kinase profiling in Jurkat lysate: AMPKa1 or AMPKa2
Method in brief: as §1

[1] = target: T3, BRD4 bromodomain domain I [BRD4(1)] (Homo sapiens, UniProt O60885); assay: BRD4 bromodomain domain 1 inhibition assay (TR-FRET); conditions: screening concentration 10 μM
T3 construct: BRD4 bromodomain domain I [BRD4(1)]; purchased Cayman Chemicals
Experimental: The inhibitory activity of test compounds on the bromodomain, BRD4 bromodomain domain I [BRD4(1)], were determined via TR-FRET after a slight modification of the manufacturer's protocol (Cayman Chemicals, Ann Arbor, Mich.). Briefly, compounds were diluted to a 20× ([…]) concentration in DMSO. 100 nL of 20× compounds were then dry stamped into triplicate wells of black, low volume 384 well plates (Aurora Biotechnologies, Carlsbad, Calif.) using the Mosquito liquid handler (TPP Labtech, Melbourn, UK). 20× compounds were then diluted to a 4× (40 μM) concentration in Assay Buffer to result in 2% DMSO content. […] JQ1 at 10 μM or 0.5% DMSO final concentrations were used as the positive and negative controls, respectively, to set the assay window. The fluorescence was read in a time-resolved format on the Biotec Synergy 2 plate reader by exciting the signal at 340 nm and reading emissions at 620 and 670, using a 100 μs delay and 200 μs read window. […] Briefly, TR-FRET ratio values were normalized to the average TR-FRET ratio value given by 10 μM JQ1. […]

AurB or AurC = assay: Probe-based (AX9989) kinase profiling in Jurkat lysate: AurB or AurC
Method in brief: as §1

ERK5 = target: T4, ERK5 (Homo sapiens, UniProt Q13164); assay: Probe-based (AX9989 acyl phosphate ATP probe) kinase profiling in Jurkat lysate: ERK5; conditions: for IC50: calculated from percent inhibition of AX9989 labeling and the screening concentration, Jurkat lysate; for inhibition at 1 µM: screening concentration 1.0 μM; for inhibition at 1 µM / inhibition at 0.1 µM: read-out: Kinase inhibition % at indicated screening concentration: ERK5; for inhibition at 0.1 µM: screening concentration 0.1 μM
T4 construct: screened for activity against several kinases in Jurkat cells; endogenous in cells; host or cells: Jurkat cell lysate
Method in brief: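 Gel-filtered Jurkat lysate (5 mg/ml, 20 mM MnCl2) preincubated 15 min at room temperature with compound, then labelled with 5 μM AX9989 acyl phosphate ATP probe. Probe-labelled ERK5 active-site peptides quantified by LC/MS after trypsin digestion and streptavidin capture; IC50 calculated from percent inhibition at the screening concentration.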

TAO2 = target: T5, TAO2 (Homo sapiens, UniProt Q9UL54); assay: Probe-based (AX9989) kinase profiling in Jurkat lysate: TAO2; conditions: read-out: Kinase inhibition % at indicated screening concentration: TAO2; for inhibition at 1 µM: screening concentration 1.0 μM; for inhibition at 0.1 µM: screening concentration 0.1 μM
T5 construct: screened for activity against several kinases in Jurkat cells; endogenous in cells; host or cells: Jurkat cell lysate
T5 sequence (Q9UL54 1-1235): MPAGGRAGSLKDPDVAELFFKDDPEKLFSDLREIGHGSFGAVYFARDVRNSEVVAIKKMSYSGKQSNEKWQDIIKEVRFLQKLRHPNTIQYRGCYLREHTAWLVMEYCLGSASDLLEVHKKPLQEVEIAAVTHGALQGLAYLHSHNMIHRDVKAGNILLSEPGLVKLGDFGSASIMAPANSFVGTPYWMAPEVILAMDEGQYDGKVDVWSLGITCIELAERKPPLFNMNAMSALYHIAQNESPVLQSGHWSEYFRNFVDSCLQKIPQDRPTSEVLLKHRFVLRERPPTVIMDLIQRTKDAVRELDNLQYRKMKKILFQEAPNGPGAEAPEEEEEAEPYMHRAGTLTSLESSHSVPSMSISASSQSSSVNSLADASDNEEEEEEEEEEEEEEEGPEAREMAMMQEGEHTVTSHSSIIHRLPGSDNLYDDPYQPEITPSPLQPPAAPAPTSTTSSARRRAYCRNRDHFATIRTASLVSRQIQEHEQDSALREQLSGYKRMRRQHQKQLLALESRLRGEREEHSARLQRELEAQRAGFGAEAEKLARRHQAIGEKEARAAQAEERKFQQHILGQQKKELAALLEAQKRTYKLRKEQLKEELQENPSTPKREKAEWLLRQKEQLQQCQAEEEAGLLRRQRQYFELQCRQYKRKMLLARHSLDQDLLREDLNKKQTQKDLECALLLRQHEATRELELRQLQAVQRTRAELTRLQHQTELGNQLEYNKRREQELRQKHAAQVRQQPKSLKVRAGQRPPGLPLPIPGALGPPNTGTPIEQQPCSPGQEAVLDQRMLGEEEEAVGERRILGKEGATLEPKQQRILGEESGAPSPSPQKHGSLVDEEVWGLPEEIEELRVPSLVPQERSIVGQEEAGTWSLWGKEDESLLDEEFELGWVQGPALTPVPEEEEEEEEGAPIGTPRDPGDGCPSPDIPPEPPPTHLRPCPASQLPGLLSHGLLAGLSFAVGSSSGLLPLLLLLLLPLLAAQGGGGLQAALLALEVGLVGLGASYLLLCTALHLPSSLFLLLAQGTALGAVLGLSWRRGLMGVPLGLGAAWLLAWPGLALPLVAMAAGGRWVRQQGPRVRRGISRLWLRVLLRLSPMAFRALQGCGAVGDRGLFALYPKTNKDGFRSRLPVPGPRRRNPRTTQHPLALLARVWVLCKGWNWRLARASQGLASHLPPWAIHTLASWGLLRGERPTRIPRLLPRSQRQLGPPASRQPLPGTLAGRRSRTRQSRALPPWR
Method in brief: as §1

JAK1 = target: T6, JAK1 (Homo sapiens, UniProt P23458); assay: Probe-based (AX9989) kinase profiling in Jurkat lysate: JAK1; conditions: read-out: Kinase inhibition % at indicated screening concentration: JAK1; for inhibition at 1 µM: screening concentration 1.0 μM; for inhibition at 0.1 µM: screening concentration 0.1 μM
T6 construct: screened for activity against several kinases in Jurkat cells; endogenous in cells; host or cells: Jurkat cell lysate
Method in brief: as §1

T4 sequence (Q13164 whole entry): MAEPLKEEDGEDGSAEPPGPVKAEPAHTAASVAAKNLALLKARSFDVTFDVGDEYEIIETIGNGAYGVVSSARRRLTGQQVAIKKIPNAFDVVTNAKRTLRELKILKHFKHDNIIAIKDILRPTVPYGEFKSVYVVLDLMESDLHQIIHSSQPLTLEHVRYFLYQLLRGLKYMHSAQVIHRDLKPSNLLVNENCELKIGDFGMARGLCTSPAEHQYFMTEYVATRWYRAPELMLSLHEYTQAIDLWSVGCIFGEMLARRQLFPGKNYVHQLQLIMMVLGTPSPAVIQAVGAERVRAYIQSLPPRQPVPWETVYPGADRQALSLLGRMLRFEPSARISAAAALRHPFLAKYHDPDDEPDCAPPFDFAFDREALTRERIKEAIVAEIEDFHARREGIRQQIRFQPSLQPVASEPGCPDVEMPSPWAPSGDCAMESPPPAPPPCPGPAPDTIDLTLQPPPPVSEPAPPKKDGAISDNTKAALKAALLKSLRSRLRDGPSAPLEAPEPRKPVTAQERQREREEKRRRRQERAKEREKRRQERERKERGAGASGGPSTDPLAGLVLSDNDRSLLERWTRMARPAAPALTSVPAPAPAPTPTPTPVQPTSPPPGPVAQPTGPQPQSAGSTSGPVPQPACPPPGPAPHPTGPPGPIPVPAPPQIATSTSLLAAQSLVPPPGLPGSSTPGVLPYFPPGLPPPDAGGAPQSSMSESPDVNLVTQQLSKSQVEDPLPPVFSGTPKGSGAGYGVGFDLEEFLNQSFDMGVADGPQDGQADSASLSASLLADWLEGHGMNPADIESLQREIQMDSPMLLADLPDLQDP
T2 sequence (Q07912 whole entry): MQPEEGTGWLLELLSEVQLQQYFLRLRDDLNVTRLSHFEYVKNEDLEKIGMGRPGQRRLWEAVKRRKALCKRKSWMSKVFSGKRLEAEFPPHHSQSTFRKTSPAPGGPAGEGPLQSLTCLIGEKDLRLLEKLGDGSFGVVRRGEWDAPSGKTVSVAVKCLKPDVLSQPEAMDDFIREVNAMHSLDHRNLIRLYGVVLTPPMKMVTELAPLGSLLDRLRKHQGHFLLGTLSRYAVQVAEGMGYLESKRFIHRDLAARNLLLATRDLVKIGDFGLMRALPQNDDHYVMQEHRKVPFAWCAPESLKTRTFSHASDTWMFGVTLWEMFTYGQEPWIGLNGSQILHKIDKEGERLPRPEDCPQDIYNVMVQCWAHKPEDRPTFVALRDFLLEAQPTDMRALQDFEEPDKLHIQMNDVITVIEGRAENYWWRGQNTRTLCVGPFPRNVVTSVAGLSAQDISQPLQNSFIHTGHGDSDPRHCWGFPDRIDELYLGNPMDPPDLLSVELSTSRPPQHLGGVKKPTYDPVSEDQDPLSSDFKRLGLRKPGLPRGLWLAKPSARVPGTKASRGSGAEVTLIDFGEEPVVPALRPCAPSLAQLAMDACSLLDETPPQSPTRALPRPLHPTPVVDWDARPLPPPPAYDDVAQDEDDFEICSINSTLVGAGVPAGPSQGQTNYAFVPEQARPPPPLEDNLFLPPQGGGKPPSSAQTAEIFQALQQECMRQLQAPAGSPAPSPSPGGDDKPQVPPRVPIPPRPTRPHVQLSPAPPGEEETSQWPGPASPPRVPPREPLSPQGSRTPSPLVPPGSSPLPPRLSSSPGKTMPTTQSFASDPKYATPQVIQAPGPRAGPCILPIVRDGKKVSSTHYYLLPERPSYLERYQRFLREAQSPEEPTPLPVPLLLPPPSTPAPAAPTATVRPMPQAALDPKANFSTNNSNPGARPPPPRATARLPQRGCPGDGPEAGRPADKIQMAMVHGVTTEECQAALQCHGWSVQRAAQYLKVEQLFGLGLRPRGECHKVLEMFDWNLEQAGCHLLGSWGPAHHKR
T6 sequence (P23458 whole entry): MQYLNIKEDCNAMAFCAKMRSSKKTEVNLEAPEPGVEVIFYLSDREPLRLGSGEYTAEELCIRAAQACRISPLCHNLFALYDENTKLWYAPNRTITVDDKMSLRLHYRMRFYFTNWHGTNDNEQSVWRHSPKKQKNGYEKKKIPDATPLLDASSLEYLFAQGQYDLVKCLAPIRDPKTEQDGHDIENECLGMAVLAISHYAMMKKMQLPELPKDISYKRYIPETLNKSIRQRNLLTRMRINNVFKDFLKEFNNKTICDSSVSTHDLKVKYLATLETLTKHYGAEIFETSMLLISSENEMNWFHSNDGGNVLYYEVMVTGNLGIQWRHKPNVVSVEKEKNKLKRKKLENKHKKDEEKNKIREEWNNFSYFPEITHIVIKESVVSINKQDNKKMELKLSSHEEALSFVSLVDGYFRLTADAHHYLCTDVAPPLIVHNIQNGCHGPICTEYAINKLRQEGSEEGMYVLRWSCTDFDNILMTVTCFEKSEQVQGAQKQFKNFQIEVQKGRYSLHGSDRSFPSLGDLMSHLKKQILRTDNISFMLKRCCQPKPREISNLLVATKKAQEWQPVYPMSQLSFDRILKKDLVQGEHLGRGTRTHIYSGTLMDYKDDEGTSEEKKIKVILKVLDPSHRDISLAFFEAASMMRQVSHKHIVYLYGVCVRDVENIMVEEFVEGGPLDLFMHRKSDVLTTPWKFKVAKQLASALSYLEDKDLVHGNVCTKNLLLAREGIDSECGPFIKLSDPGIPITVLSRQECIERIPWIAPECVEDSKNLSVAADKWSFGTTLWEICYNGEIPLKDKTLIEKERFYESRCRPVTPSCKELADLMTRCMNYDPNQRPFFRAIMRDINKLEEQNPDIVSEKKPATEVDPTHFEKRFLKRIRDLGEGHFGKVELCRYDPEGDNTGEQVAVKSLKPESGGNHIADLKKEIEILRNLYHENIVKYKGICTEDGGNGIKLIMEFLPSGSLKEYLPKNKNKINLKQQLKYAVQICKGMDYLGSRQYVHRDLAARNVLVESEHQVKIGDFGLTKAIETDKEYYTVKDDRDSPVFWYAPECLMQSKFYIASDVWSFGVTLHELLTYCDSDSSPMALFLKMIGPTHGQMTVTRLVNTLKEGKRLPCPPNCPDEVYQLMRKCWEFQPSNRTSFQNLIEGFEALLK

| Structure (SMILES) | inhibition at 1 µM (AurA) [%] | inhibition at 1 µM (ACK) [%] | Kinase inhibition % at indicated screening concentration: ABL or ARG (ABL or ARG; screening concentration 1.0 μM) | Kinase inhibition % at indicated screening concentration: AMPKa1 or AMPKa2 (AMPKa1 or AMPKa2; screening concentration 1.0 μM) | inhibition at 10 µM [1] [%] | Kinase inhibition % at indicated screening concentration: AurB or AurC (AurB or AurC; screening concentration 1.0 μM) | IC50 (ERK5) [nM] | inhibition at 1 µM (ERK5) [%] | inhibition at 1 µM (TAO2) [%] | inhibition at 1 µM (JAK1) [%] | inhibition at 0.1 µM (AurA) [%] | inhibition at 0.1 µM (ACK) [%] | Kinase inhibition % at indicated screening concentration: ABL or ARG (ABL or ARG; screening concentration 0.1 μM) | Kinase inhibition % at indicated screening concentration: AMPKa1 or AMPKa2 (AMPKa1 or AMPKa2; screening concentration 0.1 μM) | Kinase inhibition % at indicated screening concentration: AurB or AurC (AurB or AurC; screening concentration 0.1 μM) | inhibition at 0.1 µM (ERK5) [%] | inhibition at 0.1 µM (TAO2) [%] | inhibition at 0.1 µM (JAK1) [%] |
| --- | --- | --- | --- | --- | --- | --- | --- | --- | --- | --- | --- | --- | --- | --- | --- | --- | --- | --- |
| COc1c(Nc2cc3c(cn2)N(C)C(=O)c2ccccc2N3C)cccc1C(=O)N1CCNCC1 [Compound 78] | ≤ 35 | ≤ 35 | E (E is ≦35%) | E (E is ≦35%) | 70 to 85 | E (E is ≦35%) | > 500 | 50 to 75 | ≤ 35 | ≤ 35 | – | – | – | – | – | – | – | – |
| CN1C(=O)c2ccccc2N(C)c2cc(NC3CCC(N)CC3)ncc21 (centres unmarked) [Compound 79] | ≤ 35 | ≤ 35 | E (E is ≦35%) | E (E is ≦35%) | < 70 | E (E is ≦35%) | 101 to 500 | 75 to 90 | ≤ 35 | ≤ 35 | – | – | – | – | – | – | – | – |
| COc1cc(C(=O)N2CCC(N(C)C)C2)c(F)cc1Nc1cc2c(cn1)N(C)C(=O)c1ccccc1N2C (centres unmarked) [Compound 90] | – | – | – | – | < 70 | – | 101 to 500 | – | – | – | ≤ 35 | ≤ 35 | E (E is ≦35%) | E (E is ≦35%) | E (E is ≦35%) | ≤ 35 | ≤ 35 | ≤ 35 |
| CN1CCC(c2ccc(Nc3cc4c(cn3)N(C)C(=O)c3ccccc3N4C)cc2)CC1 [Compound 92] | ≤ 35 | ≤ 35 | E (E is ≦35%) | E (E is ≦35%) | 70 to 85 | C (C is >50% to ≦75%) | ≤ 50 | > 90 | 50 to 75 | 35 to 50 | – | – | – | – | – | – | – | – |
| CC(=O)NC1CCC(Nc2cc3c(cn2)N(C)C(=O)c2ccccc2N3C)CC1 (centres unmarked) [Compound 98] | ≤ 35 | ≤ 35 | E (E is ≦35%) | E (E is ≦35%) | < 70 | E (E is ≦35%) | > 500 | 50 to 75 | ≤ 35 | ≤ 35 | – | – | – | – | – | – | – | – |
| CN1C(=O)c2ccccc2N(C)c2cc(N[C@H]3CC[C@H](NS(C)(=O)=O)CC3)ncc21 [Compound 99] | ≤ 35 | ≤ 35 | E (E is ≦35%) | E (E is ≦35%) | 70 to 85 | E (E is ≦35%) | 101 to 500 | 75 to 90 | ≤ 35 | ≤ 35 | – | – | – | – | – | – | – | – |
| CCOc1cc(C(=O)NC2CCC(O)CC2)ccc1Nc1cc2c(cn1)N(C)C(=O)c1ccccc1N2C (centres unmarked) [Compound 109] | ≤ 35 | ≤ 35 | E (E is ≦35%) | E (E is ≦35%) | < 70 | E (E is ≦35%) | > 500 | 35 to 50 | ≤ 35 | ≤ 35 | – | – | – | – | – | – | – | – |
| CCOc1cc(C(=O)N2CCCC(N)C2)ccc1Nc1cc2c(cn1)N(C)C(=O)c1occc1N2C (centres unmarked) [Compound 113] | – | – | – | – | > 85 | – | ≤ 50 | – | – | – | ≤ 35 | ≤ 35 | E (E is ≦35%) | E (E is ≦35%) | E (E is ≦35%) | > 90 | ≤ 35 | ≤ 35 |
